The source made the active and inactive calls.
How the values were obtained:
[1] = molecular target: Heat shock protein HSP 90-alpha (Homo sapiens, UniProt P07900); assay type: functional, organism-based
HEK293 [2] = test: membrane integrity loss in HEK cells – cell-based, fluorescence, cytotoxicity control for IDE activator project, dose response (AID 588440); assay type: functional; conditions: Homo sapiens;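 note: cytotoxicity by LDH release measuring loss of membrane integrity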
Insulin-degrading enzyme [3] = molecular target: T1, Insulin-degrading enzyme (Homo sapiens, UniProt P14735); test: recombinant IDE activation, cell-free – biochemical, fluorescence polarization, counter-screen for IDE activator project, dose response (AID 588681)
T1 sequence (P14735 whole entry): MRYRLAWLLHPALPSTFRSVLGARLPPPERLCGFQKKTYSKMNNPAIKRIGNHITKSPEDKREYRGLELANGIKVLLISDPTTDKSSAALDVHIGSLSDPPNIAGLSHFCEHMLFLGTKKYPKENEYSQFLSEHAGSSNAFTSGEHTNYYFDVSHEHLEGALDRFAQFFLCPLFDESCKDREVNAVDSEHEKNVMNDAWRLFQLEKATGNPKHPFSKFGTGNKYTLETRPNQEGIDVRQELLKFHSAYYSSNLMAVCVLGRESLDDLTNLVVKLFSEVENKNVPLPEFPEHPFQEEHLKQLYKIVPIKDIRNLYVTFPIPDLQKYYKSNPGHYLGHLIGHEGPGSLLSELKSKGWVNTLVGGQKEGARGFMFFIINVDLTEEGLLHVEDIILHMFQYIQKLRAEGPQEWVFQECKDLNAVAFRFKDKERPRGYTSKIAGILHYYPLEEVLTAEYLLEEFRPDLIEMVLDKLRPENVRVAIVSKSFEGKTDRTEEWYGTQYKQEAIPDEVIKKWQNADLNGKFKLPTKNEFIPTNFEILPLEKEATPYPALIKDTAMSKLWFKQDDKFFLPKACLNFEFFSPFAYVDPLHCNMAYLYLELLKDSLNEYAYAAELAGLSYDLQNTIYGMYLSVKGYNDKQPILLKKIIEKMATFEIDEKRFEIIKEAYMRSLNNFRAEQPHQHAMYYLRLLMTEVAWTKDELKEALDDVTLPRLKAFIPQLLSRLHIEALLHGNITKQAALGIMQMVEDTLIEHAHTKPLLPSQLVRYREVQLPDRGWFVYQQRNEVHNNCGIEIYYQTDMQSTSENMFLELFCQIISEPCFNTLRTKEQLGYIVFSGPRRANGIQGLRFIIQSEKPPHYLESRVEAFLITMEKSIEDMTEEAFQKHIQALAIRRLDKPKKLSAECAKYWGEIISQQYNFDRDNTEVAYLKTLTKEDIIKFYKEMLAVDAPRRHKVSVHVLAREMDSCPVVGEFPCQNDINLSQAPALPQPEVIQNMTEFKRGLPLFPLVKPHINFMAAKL

[4] = Luminescence Cell-Based Dose Retest to Confirm Inhibitors of Cancer Stem Cells. [Related pubchem assays (depositor defined):AID2717, AID2721]; assay type: functional; conditions: Homo sapiens
[5] = molecular target: Disintegrin and metalloproteinase domain-containing protein 17 (Homo sapiens, UniProt P78536); test: inhibition of ADAM17 substrate cleavage – biochemical, quenched FRET substrate, counter-screen for ADAM10 exosite inhibitor project, dose response (AID 743253)
HEK293 [6] = test: optical interference in Abeta FP readout, dose response, artefact control for IDE activator project, biochemical, fluorescence polarization (AID 588442); assay type: functional, cell-based; conditions: Homo sapiens
Insulin-degrading enzyme [7] = molecular target: T1, Insulin-degrading enzyme; test: cellular IDE activation of Abeta substrate cleavage – fluorescence polarization, HEK cells, dose response (AID 588439); assay type: functional, cell-based
[8] = potency of ADAM10 substrate cleavage blockers – biochemical, QFRET, dose response (AID 743254);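 note: ADAM10 enzyme with the DM2 quenched FRET peptide as substrate; EDANS fluorescence gain as the protease cuts the substrate; inhibitor potency against ADAM10 proteolytic activity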
Vero [9] = test: cells; assay type: functional, cell-based; conditions: Chlorocebus sabaeus
Vero [10] = test: cells; assay type: functional; conditions: Chlorocebus sabaeus
[11] = molecular target: T2, Microphthalmia-associated transcription factor (Homo sapiens, UniProt O75030); test: reducers of TRPM1 reporter luminescence, concentration series – cell-based, SK-MEL-5, cherry-picked, set 3, MITF inhibitor project, dose response (AID 493073); assay type: functional;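 note: SK-MEL-5 melanoma cells with luciferase driven by the MITF target TRPM1 promoter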
T2 sequence (O75030 whole entry): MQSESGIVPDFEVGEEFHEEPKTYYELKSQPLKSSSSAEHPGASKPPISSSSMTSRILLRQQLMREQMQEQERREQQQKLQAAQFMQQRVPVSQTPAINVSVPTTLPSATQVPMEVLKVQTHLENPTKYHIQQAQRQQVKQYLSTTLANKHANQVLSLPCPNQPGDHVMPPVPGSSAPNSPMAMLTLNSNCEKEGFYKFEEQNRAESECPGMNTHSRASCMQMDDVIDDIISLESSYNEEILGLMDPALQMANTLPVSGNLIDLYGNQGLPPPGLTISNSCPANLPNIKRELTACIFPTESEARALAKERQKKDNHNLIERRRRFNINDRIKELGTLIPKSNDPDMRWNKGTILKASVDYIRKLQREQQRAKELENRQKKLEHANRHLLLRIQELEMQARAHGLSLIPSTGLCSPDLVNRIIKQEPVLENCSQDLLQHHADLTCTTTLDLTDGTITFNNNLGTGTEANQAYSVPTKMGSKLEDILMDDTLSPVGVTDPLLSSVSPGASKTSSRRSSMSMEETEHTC

Vero [12] = test: viability of Vero cells under compound – cytotoxicity control for flavivirus capping enzyme inhibitors (AID 588742); assay type: functional; conditions: Chlorocebus sabaeus
[13] = molecular target: T3, Nucleotide-binding oligomerization domain-containing protein 1 (Homo sapiens, UniProt Q9Y239); test: blockers of NOD1 pathway activity – revised, SAR follow-up (AID 2333); assay type: functional
T3 sequence (Q9Y239 whole entry): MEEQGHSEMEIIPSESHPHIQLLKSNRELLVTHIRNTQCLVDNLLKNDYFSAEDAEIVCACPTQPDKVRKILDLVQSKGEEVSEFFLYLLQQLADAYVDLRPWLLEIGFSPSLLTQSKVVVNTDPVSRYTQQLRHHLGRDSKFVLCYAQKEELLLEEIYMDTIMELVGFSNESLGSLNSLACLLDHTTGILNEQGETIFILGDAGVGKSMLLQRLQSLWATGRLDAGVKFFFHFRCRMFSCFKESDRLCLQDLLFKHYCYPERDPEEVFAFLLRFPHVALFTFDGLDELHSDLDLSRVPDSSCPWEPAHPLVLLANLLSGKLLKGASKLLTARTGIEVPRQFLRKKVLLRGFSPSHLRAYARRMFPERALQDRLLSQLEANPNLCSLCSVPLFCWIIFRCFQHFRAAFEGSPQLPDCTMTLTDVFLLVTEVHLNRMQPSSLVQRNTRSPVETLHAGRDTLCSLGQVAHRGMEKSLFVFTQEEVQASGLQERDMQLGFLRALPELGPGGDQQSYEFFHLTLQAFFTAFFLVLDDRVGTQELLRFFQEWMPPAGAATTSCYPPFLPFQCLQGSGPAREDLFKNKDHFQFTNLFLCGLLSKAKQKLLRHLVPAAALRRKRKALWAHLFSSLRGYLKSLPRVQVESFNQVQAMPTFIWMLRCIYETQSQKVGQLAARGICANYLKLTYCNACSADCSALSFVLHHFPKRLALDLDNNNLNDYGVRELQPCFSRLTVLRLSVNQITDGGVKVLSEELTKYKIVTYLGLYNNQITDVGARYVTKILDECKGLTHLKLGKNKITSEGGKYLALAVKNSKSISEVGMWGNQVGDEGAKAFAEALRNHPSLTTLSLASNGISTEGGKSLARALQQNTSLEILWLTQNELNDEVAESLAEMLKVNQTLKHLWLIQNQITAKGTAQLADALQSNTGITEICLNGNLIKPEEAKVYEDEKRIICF

Tumor necrosis factor = Tumor necrosis factor (Homo sapiens, UniProt P01375); test: analog potency on TNFa NF-kB signaling – cell-based, revised, SAR follow-up (AID 2337); assay type: functional
HEK293 [14] = test: cells; conditions: Homo sapiens
INS1 = test: INS-1E survival protection against cytokine death – cell-based, luminescence, retest, dose response (AID 449756); assay type: functional; conditions: Rattus norvegicus;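 note: cell death triggered by IL-1 beta plus TNF-alpha plus IFN-gamma mixture; protective hits raise ATP signal compared with cytokine alone wells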
[15] = molecular target: T4, Ubiquitin-conjugating enzyme E2 N (Homo sapiens, UniProt P61088); assay type: functional;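 note: Dose-response confirmation in a TR-FRET assay detecting UBC13-driven polyubiquitin chain formation, inhibition measured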
T4 sequence (P61088 whole entry): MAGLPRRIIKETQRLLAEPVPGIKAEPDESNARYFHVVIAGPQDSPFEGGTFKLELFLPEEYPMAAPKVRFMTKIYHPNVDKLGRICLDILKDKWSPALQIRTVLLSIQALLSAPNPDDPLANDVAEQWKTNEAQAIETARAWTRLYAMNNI

Chain of Tumor necrosis factor (P01375 whole entry): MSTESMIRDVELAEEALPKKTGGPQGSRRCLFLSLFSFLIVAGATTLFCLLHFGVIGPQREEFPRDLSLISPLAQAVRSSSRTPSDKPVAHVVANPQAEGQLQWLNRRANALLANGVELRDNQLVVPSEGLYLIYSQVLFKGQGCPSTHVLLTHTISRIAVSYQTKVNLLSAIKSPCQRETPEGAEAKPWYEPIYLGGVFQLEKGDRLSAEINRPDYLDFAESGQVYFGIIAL
Chain of Disintegrin and metalloproteinase domain-containing protein 17 (P78536 whole entry, the tested form may be a part): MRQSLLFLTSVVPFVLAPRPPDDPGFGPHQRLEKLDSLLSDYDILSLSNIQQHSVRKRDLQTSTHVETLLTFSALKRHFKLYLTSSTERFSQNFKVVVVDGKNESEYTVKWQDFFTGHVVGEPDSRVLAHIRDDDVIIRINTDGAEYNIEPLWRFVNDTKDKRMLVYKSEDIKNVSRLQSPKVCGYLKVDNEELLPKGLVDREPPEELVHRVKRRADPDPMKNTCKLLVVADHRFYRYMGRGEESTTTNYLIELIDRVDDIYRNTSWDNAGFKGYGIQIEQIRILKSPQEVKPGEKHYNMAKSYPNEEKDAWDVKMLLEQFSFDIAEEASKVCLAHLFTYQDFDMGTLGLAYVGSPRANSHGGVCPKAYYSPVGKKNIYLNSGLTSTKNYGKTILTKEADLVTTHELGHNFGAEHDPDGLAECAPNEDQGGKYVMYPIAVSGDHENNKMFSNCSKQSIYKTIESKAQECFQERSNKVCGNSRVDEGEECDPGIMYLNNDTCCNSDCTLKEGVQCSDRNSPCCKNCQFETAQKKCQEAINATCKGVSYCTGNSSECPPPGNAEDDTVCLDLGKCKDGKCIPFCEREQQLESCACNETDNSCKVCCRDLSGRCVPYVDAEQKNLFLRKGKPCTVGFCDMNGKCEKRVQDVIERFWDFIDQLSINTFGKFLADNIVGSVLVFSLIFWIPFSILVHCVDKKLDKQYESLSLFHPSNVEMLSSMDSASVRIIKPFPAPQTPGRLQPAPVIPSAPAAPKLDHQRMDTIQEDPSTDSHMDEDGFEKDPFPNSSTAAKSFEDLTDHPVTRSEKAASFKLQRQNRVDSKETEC

## CC1(C)C=Cc2c(ccc3c2OC[C@H](c2ccc(O)cc2O)C3)O1
[1]
  AC50: 7.45 µM (active)
HEK293 [2]
  IC50: 22.1 µM (inactive)
Insulin-degrading enzyme [3]
  EC50: > 54.7 µM (inactive)
[4]
  AC50: 3.16 µM (active)
[5]
  IC50: > 69.5 µM (inactive)
HEK293 [6]
  EC50: > 54.7 µM (inactive)
Insulin-degrading enzyme [7]
  EC50: > 54.7 µM (inactive)
[8]
  IC50: 19.5 µM (inactive)

## Cc1oc(-c2ccc(Cl)cc2)nc1CN1CCC(C(=O)NCCCN2CCCC(C)C2)CC1 (configuration not stated)
Vero [9]
  IC50: 4.32 µM (active)
Vero [10]
  CC50: 22.5 µM (active)
[11]
  AC50: 13.2 µM (active)

## COc1ccc(CNc2nc(NCc3ccc(OC)cc3)c3[nH]cnc3n2)cc1
Vero [12]
  CC50: > 40 µM (active)

## O=C(CSc1nc2scc(-c3ccccc3)c2c(=O)[nH]1)Nc1ccc(C(F)(F)F)cc1
[13]
  IC50: 1.65 µM (active)
Tumor necrosis factor
  IC50: 0.752 µM (active)
HEK293 [14]
  IC50: 10.3 µM (active)

## COC(=O)C1=C(C)N(Cc2ccccc2)C(NCc2cccc(Cl)c2)=N[C@H]1c1cccc(F)c1
HEK293 [2]
  IC50: 12.1 µM (inactive)
Insulin-degrading enzyme [3]
  EC50: > 54.7 µM (inactive)
[4]
  AC50: 3.48 µM (active)
INS1
  AC50: 7.03 µM (active)
[15]
  IC50: > 20 µM (inactive)
HEK293 [6]
  EC50: > 56 µM (inactive)
Insulin-degrading enzyme [7]
  EC50: 25.2 µM (inactive)
